In US20210161131A1, “cis-p-Menthane-1,8-Di-secondary Amine Compounds as well as Their Preparation Methods and Application in Weed Control” (RESEARCH INSTITUTE OF FORESTRY NEW TECHNOLOGY, CHINESE …, priority 2019, published 2021):

System: barnyard grass seeds
Assay: Petri dish seed germination method: inhibition of root and stem growth of barnyard grass
Format: in vivo
Settings: 96 hours incubation
Method: (§1) Step 2: Accurately weigh 1 mmol cis-p-menthane-1,8-di-Schiff base compounds and cis-p-menthane-1,8-di-secondary amine compounds respectively, dissolve each of them with 0.25 mL DMF, and add a drop of Tween 80 in each resulted solution. After being fully dissolved, each solution is transferred to a 100 mL volumetric flask respectively and then diluted to the mark with distilled water to obtain a solution with a concentration of 10 mmol/L as the mother liquor. The two-fold dilution method is used to prepare diluted solutions with a series of concentrations (the concentrations of DMF and Tween 80 in the diluted solutions are the same as those in the mother liquor).
(§2) Barnyard grass seeds are placed in a 28° C. incubator and are soaked in an appropriate amount of distilled water for 12 hours there. After the clean water is filtered out, the seeds are then placed in the 28° C. incubator for 24 hours to germinate. Spread 2 pieces of filter paper in each of several Petri dishes, and place 10 barnyard grass seeds with the same size in each dish. Repeat each treatment for three times The dishes are divided into two groups: test dishes and control dishes. Add into each test dish 10 mL of the sample solution with the corresponding concentration of the target compound, and add into each control dish the same amount of the mixture of water, DMF and Tween 80 as the blank control. Add 10 seeds to each of the dishes (both test dishes and control dishes), place them in an artificial climate incubator, and incubate them for 96 hours under a temperature of 28° C., an illumination of 5000 1×, a photoperiod of day:night=16:8 and a relative humidity of 70-80%. The experimental data is processed and analyzed with DPS software to calculate the inhibition rate (y) of cis-p-menthane-1,8-di-secondary amine compounds on the root growth or stem growth of barnyard grass seeds.
Wherein, y is the inhibition rate of root growth or stem growth (%), x0 is the root length or stem length of the control, and x1 is the root length or stem length of the sample.
as §1, with “Accurately” for “Step 2: Accurately”, “cis-p-menthane-1,8-bis-(4-chlorophenyl)Schiff” for “cis-p-menthane-1,8-di-Schiff”, “base” for “base compounds”, “cis-p-menthane-1,8-bis-(4-chlorobenzyl)amine” for “cis-p-menthane-1,8-di-secondary amine compounds”, “(5 mmol/L, 2.5 mmol/L, 1.25 mmol/L, 0.625 mmol/L, 0.3125 mmol/L and 0.1563 mmol/L; the” for “(the”
as §2, with “placed in a 30° C. incubator” for “placed in the 28° C. incubator”, “in each Petri dish,” for “in each of several Petri dishes,”, “each Petri dish, and place” for “several Petri dishes, and place”, “with the above corresponding concentration” for “with the corresponding concentration”, “with DPS software.” for “with DPS software to calculate the inhibition rate (y) of cis-p-menthane-1,8-di-secondary amine compounds on the root growth or stem growth of barnyard grass seeds.”

| SMILES | inhibition rate on the root growth of barnyard grass seeds (0.15625 mmol/L) [%] | inhibition rate on the stem growth of barnyard grass seeds (0.15625 mmol/L) [%] | inhibition rate on the root growth of barnyard grass seeds (0.3125 mmol/L) [%] | inhibition rate on the stem growth of barnyard grass seeds (0.3125 mmol/L) [%] | inhibition rate on the root growth of barnyard grass seeds (0.625 mmol/L) [%] | inhibition rate on the stem growth of barnyard grass seeds (0.625 mmol/L) [%] | inhibition rate on the root growth of barnyard grass seeds (1.25 mmol/L) [%] | inhibition rate on the stem growth of barnyard grass seeds (1.25 mmol/L) [%] | inhibition rate on the root growth of barnyard grass seeds (2.5 mmol/L) [%] | inhibition rate on the stem growth of barnyard grass seeds (2.5 mmol/L) [%] | inhibition rate on the root growth of barnyard grass seeds (5 mmol/L) [%] | inhibition rate on the stem growth of barnyard grass seeds (5 mmol/L) [%] |
| --- | --- | --- | --- | --- | --- | --- | --- | --- | --- | --- | --- | --- |
| CC1(NCc2ccco2)CCC(C(C)(C)NCc2ccco2)CC1 (stereo not drawn) [cis-p-menthane-1,8-bis(furan-2-methyl)amine] | 0 | 0 | 36.3 | 8.6 | 39.0 | 16.1 | 48.8 | 19.3 | 72.7 | 41.1 | 92.7 | 65.3 |
| CC(C)(NCc1ccccn1)[C@H]1CC[C@@](C)(NCc2ccccn2)CC1 [cis-p-menthane-1,8-bis(pyridine-2-methyl)amine] | 18.9 | 23.8 | 20.5 | 26.4 | 33.8 | 30.1 | 61.0 | 46.6 | 95.8 | 65.3 | 100.0 | 88.0 |
| CC1(NCc2cccnc2)CCC(C(C)(C)NCc2cccnc2)CC1 (stereo not drawn) [cis-p-menthane-1,8-bis(pyridine-3-methyl)amine] | 5.7 | 38.0 | 10.2 | 30.6 | 19.2 | 41.5 | 41.4 | 44.6 | 86.1 | 65.3 | 95.2 | 84.9 |
| CC1(NCc2ccncc2)CCC(C(C)(C)NCc2ccncc2)CC1 (stereo not drawn) [cis-p-menthane-1,8-bis(pyridine-4-methyl)amine] | 19.0 | 28.6 | 37.9 | 34.5 | 40.6 | 32.7 | 71.5 | 53.5 | 91.2 | 71.3 | 96.5 | 86.7 |
| CC1(NCc2ccc[nH]2)CCC(C(C)(C)NCc2ccc[nH]2)CC1 (stereo not drawn) [cis-p-menthane-1,8-bis(pyrrole-2-methyl)amine] | 1.7 | 15.4 | 60.5 | 26.5 | 87.7 | 28.6 | 93.1 | 48.2 | 91.9 | 71.5 | 94.4 | 78.3 |
